Type in all cases: cell-based
The subject of assay [1] is T-47D cells. Put plainly: Inhibition of cell proliferation in T-47D cells (CCK-8). Particulars: 6 days treatment, CCK-8 cell viability. In outline:
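Viability by CCK-8 after a 6-day, 37 °C/5% CO2 exposure of T-47D cells (3,000/well, RPMI-1640 + 10% FBS) to graded PROTAC concentrations. Inhibition rates gave the IC50.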

Assay [2] has as its system MCF-7 cells. Briefly: Inhibition of cell proliferation in MCF-7 cells (CCK-8). Particulars: MCF-7 cell proliferation, 6 days treatment. In outline:
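IC50 from CCK-8 viability-based inhibition after 6-day treatment of MCF-7 cells (800 cells/well, 10% FBS DMEM, 37 °C, 5% CO2) with serially varied compound concentrations.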

Assay [3] addresses T1, ERα (Homo sapiens, UniProt P03372).
T1 sequence (P03372 1-595): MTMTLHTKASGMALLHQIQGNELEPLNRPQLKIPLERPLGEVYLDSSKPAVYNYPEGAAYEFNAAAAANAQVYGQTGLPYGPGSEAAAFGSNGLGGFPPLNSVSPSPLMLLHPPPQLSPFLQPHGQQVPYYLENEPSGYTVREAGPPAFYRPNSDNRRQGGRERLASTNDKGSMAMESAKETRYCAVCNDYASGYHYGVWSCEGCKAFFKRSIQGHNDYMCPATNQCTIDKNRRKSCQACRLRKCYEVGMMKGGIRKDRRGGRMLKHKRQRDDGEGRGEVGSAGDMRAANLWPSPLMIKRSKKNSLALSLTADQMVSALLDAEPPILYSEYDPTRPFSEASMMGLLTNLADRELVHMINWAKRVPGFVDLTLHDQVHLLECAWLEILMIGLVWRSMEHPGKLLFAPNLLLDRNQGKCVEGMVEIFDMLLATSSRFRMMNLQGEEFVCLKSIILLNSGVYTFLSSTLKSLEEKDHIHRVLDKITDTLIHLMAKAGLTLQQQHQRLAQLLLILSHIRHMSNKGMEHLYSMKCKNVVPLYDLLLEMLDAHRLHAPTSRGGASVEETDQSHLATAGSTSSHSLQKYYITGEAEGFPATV
Briefly: ERα degradation in T-47D cells (Western blot). Particulars: 4 hours. The protocol:
(§1) Western blotting: The total protein concentration in the collected cell lysate supernatant was determined using the BCA protein concentration assay kit (enhanced) (P0009, Beyotime). Based on the total protein concentration determined by BCA, the protein concentration was adjusted to 1 µg/µL using RIPA lysis buffer and 5× SDS-PAGE protein loading buffer (MB01015, GenScript). The protein was denatured in a 95°C water bath for 5 minutes. After denaturation, the condensed water on the tube wall was collected by centrifugation and used as the loading sample. 20µL of the loading sample (20 µg of total protein) was added to the sample well of a 12% precast gel (M00669, GenScript). Electrophoresis was performed at 100 V for 20 minutes, followed by switching to 150 V for 40 minutes. After electrophoresis, the proteins from the SDS-PAGE gel were transferred to a PVDF membrane at a constant voltage of 100 V for 60 minutes. After transfer, the PVDF membrane corresponding to the ERα protein and internal reference protein was cut and incubated in 1× QµickBlock blocking buffer (P0252, Beyotime) for 30 minutes at room temperature on a shaker. After blocking, the ERα primary antibody (1:1000, 8644S, CST) was added and incubated overnight at 4°C on a shaker. The PVDF membrane was washed three times with 1× TBST buffer for 5 minutes each. Rabbit IgG (H+L) secondary antibody (1:7500, SA5-35571, Invitrogen) was added and incubated for 1 hour at room temperature on a shaker. The membrane was then washed again three times with 1× TBST buffer for 5 minutes each. Finally, the membrane was imaged using a dual-color infrared laser imaging system (Odyssey DLx, LICOR). Protein maps were analyzed for grayscale value using Image Studio Lite software. The grayscale correction value for each sample was calculated using the formula: grayscale correction value = grayscale value of the target protein / grayscale value of the corresponding internal reference. Then the grayscale correction values of the compound group and the control group were compared to calculate the degradation rate of the compound. Table 4 Degradation rate of ERα by PROTAC compounds of the present invention and positive control in MCF-7 cells (%)
Test Example 5 Degradation of ERα by the PROTAC compounds disclosed in the present invention in T-47D cells
T-47D (ATCC) cells were cultured in PRMI-1640 medium (30-2001, ATCC) containing 10% FBS (10099141C, Gibco) at 37°C and 5% CO2 until they entered the logarithmic growth phase. T-47D cells were seeded at a density of 3×10^5 cells/well in a 6-well plate and incubated at 37°C, 5% CO2 for 24 hours. After cell attachment, 1 µL of compound dimethyl sulfoxide solution (final concentration 0.15-1000 nM) was added and incubated for another 4 hours at 37°C, 5% CO2 incubator. After 4 hours, the culture medium was discarded, and each well was washed once with 1 mL of pre-chilled 1× DPBS. The cells were then lysed with 50 µL of RIPA lysis buffer (P0013B, Beyotime) and 1× protease inhibitor cocktail (P1005, Beyotime). After incubation on ice for 20 minutes, the cells were centrifuged at 14,000 g at 4°C for 30 minutes. The supernatant was carefully collected and analyzed for ERα protein levels by immunoblotting. Table 5 Degradation rate of ERα by PROTAC compounds of the present invention and positive control sample in T-47D cells (%)
Background: In western blotting, separated proteins are transferred to a membrane and probed.

For assay [4], the target named is T1, ERα. Put plainly: ERα degradation in MCF-7 cells (Western blot). Further details: host or cells: MCF-7. Particulars: 4 hours. The procedure:
Test Example 4 Effect of PROTAC Compounds Disclosed in the Present Invention on ERα Degradation in MCF-7 Cells
MCF-7 (ATCC) cells were cultured in DMEM medium (11995-065, Gibco) containing 10% FBS (10099141C, Gibco) at 37°C and 5% CO2 until they entered the logarithmic growth phase. MCF-7 cells were plated at a density of 3×10^5 cells/well in a 6-well plate and incubated at 37°C, 5% CO2 for 24 hours. After cell attachment, 1µL of compound in dimethyl sulfoxide (final concentration 0.15-1000nM) was added and incubated for another 4 hours at 37°C, 5% CO2 incubator. After 4 hours, the culture medium was discarded, and each well was washed once with 1 mL of pre-chilled 1× DPBS. The cells were then lysed with 50 µL of RIPA lysis buffer (P0013B, Beyotime) and 1× protease inhibitor cocktail (P1005, Beyotime). After incubation on ice for 20 minutes, the cells were centrifuged at 14,000 g at 4°C for 30 minutes. The supernatant was carefully collected and analyzed for ERα protein levels by immunoblotting.
as §1

As a reminder, the IC50 is the midpoint of a concentration-inhibition curve. Low values mean greater potency in that assay, high ones weaker potency in that assay.

With `O=C1CCC(n2c(=O)n3c4c(cccc42)N(C[C@H]2CC[C@@H](OC4CCN(c5ccc([C@@H]6c7ccc(O)cc7CC[C@@H]6c6ccccc6)cc5)CC4)CC2)CC3)C(=O)N1` (stereo partly drawn) [ER-P-56, 3-(6-(((1S,4s)-4-((1-(4-((1R,2S)-6-hydroxy-2-phenyl-1,2,3,4-tetrahydronaphthalen-1-yl)phenyl)piperidin-4-yl)oxy)cyclohexyl)methyl)-2-oxo-5,6-dihydro-4H-imidazo[1,5,4-de]quinoxalin-1(2H)-yl)piperidine-2,6-dione], the IC50 in assay [1] (Homo sapiens, T47D, 144 h) worked out at 42.2 nM; in assay [2] (Homo sapiens, MCF7, 144 h), 2460 nM. Further, the figures for the “Degradation rate of ERα in T-47D cells (%)” value in assay [3] (1nM) and in assay [3] (10nM) were 22% and 24%, respectively. Besides, the “Degradation rate of ERα in MCF-7 cells (%)” value in assay [4] (1nM) is listed as -4%; in assay [4] (10nM), 16%.
Consider `Cn1c(=O)n(C2CCC(=O)NC2=O)c2ccc3c(c21)OCC31CCN(C2CCN(C(=O)C3CCN(c4ccc([C@@H]5c6ccc(O)cc6CC[C@@H]5c5ccccc5)cc4)CC3)CC2)CC1` (stereo partly drawn) [ER-P-13, 3-(1'-(1-(1-(4-((1R,2S)-6-hydroxy-2-phenyl-1,2,3,4-tetrahydronaphthalen-1-yl)phenyl)piperidine-4-carbonyl)piperidin-4-yl)-1-methyl-2-oxo-1,2-dihydro-3H,7H-spiro[benzofuro[6,7-d]imidazole-6,4'-piperidin]-3-yl)piperidine-2,6-dione], for which the IC50 in assay [1] (Homo sapiens, T47D, 144 h) came to 0.47 nM; in assay [2] (Homo sapiens, MCF7, 144 h), 18.9 nM. Also, the “Degradation rate of ERα in T-47D cells (%)” value in assay [3] (1nM) stood at 79%; in assay [3] (10nM), 74%. In addition, the “Degradation rate of ERα in MCF-7 cells (%)” value in assay [4] (1nM) was found to be 72%; in assay [4] (10nM), 85%.
As for `CN(c1ccc2c(c1)COC[C@H]1CN(CC3CCC(OC4CCN(c5ccc([C@@H]6c7ccc(O)cc7CC[C@@H]6c6ccccc6)cc5)CC4)CC3)CCN21)C1CCC(=O)NC1=O` (stereo partly drawn) [ER-P-52, 3-(((R)-3-((4-((1-(4-((1R,2S)-6-hydroxy-2-phenyl-1,2,3,4-tetrahydronaphthalen-1-yl)phenyl)piperidin-4-yl)oxy)cyclohexyl)methyl)-1,2,3,4,4a,5-hexahydro-7H-benzo[e]pyrazino[2,1-c][1,4]oxazepin-9-yl)(methyl)amino)piperidine-2,6-dione], the IC50 in assay [1] (Homo sapiens, T47D, 144 h) stood at 248 nM; in assay [2] (Homo sapiens, MCF7, 144 h) it was 854 nM. Besides, the “Degradation rate of ERα in T-47D cells (%)” value in assay [3] (1nM) and in assay [3] (10nM) was 6% in each case. For the same compound, the figures for the “Degradation rate of ERα in MCF-7 cells (%)” value in assay [4] (1nM) and in assay [4] (10nM) were -2% and 7%, respectively.
“(S)-N-((S)-2,6-dioxopiperidin-3-yl)-3-(((1S,4R)-4-((1-(4-((1R,2S)-6-hydroxy-2-phenyl-1,2,3,4-tetrahydronaphthalen-1-yl)phenyl)piperidin-4-yl)oxy)cyclohexyl)methy l)-1,2,3,4,4a,5-hexahydrobenzo[b]pyrazi no[1,2-d][1,4]oxazine-8-carboxamide [ER-P-47]”: the IC50 in assay [1] is 1.47 nM; in assay [2] it was 8430 nM. In addition, the “Degradation rate of ERα in T-47D cells (%)” value is reported as -14% in assay [3] (1nM) and 25% in assay [3] (10nM). The “Degradation rate of ERα in MCF-7 cells (%)” value in assay [4] (1nM) worked out at 21%; in assay [4] (10nM), 26%.
Consider `O=C1CCC(Nc2ccc3c(c2)OC[C@@H]2CN(C4CCC5(CC4)CN(c4ccc([C@@H]6c7ccc(O)cc7CC[C@@H]6c6ccccc6)cc4)C5)CCN32)C(=O)N1` (stereo partly drawn) [ER-P-36, 3-(((S)-3-(2-(4-((1R,2S)-6-hydroxy-2-phenyl-1,2,3,4-tetrahydronaphthalen-1-yl)phenyl)-2-azaspiro[3.5]nonan-7-yl)-1,2,3,4,4a,5-hexahydrobenzo[b]pyrazino[1,2-d][1,4]oxazin-8-yl)amino)piperidine-2,6-dione], for which the half-inhibitory concentration (IC50) in assay [1] (Homo sapiens, T47D, 144 h) came out at 25.1 nM; in assay [2] (Homo sapiens, MCF7, 144 h) it was 2280 nM. Moreover, the “Degradation rate of ERα in T-47D cells (%)” value turned out to be 0% in assay [3] (1nM) and 1% in assay [3] (10nM). Besides, the entries for the “Degradation rate of ERα in MCF-7 cells (%)” value in assay [4] (1nM) and in assay [4] (10nM) were 7% and -11%, respectively.
For the compound `CN(c1ccc2c(c1)COC[C@H]1CN(CC3CCC(OC4CCN(c5ccc([C@@H]6c7ccc(O)cc7CC[C@@H]6c6ccccc6)cc5)CC4)CC3)CCN21)C1CCC(=O)NC1=O` (stereo partly drawn) [ER-P-53, 3-(((R)-3-((4-((1-(4-((1R,2S)-6-hydroxy-2-phenyl-1,2,3,4-tetrahydronaphthalen-1-yl)phenyl)piperidin-4-yl)oxy)cyclohexyl)methyl)-1,2,3,4,4a,5-hexahydro-7H-benzo[e]pyrazino[2,1-c][1,4]oxazepin-9-yl)(methyl)amino)piperidine-2,6-dione], the IC50 in assay [1] turned out to be 252 nM; in assay [2], 1310 nM. For the same compound, the entries for the “Degradation rate of ERα in T-47D cells (%)” value in assay [3] (1nM) and in assay [3] (10nM) were 18% and 33%, respectively. The “Degradation rate of ERα in MCF-7 cells (%)” value in assay [4] (1nM) is 10%; in assay [4] (10nM) it was 21%.
`O=C1CCC(Nc2ccc3c(c2)COC[C@H]2CN(CC4CCC(OC5CCN(c6ccc([C@@H]7c8ccc(O)cc8CC[C@@H]7c7ccccc7)cc6)CC5)CC4)CCN32)C(=O)N1` (single isomer, unassigned) [ER-P-51]: the values for the IC50 in assay [1] and in assay [2] were 74.3 nM and 1260 nM, respectively. In addition, the entries for the “Degradation rate of ERα in T-47D cells (%)” value in assay [3] (1nM) and in assay [3] (10nM) were 14% and 12%, respectively. Besides, the “Degradation rate of ERα in MCF-7 cells (%)” value in assay [4] (1nM) is given as 5%; in assay [4] (10nM), 1%.

The values above are taken from patent EP4722219A1 (Gan & Lee Pharmaceuticals Co., Ltd., priority 2023, dated 2024).
